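Cultured in 96-well plates, cells were exposed to test compound for 48 hours across five concentrations. GI50: concentration for 50% inhibition of growth.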 Calls of active or inactive are those of the source. Rule as the data show it: active = GI50 up to about 1.1 µM and inactive = higher.
Columns and labels:
Experiment in all cases: growth of human tumour cells (NCI), 48 h
NCI-H23 = test system: NCI-H23
M14 = test system: M14
SK-MEL-2 = test system: SK-MEL-2
HOP-92 = test system: HOP-92
EKVX = test system: EKVX
SF-295 = test system: SF-295
SF-539 = test system: SF-539
KM12 = test system: KM12
786-0 = test system: 786-0
U-251 = test system: U-251
T47D = test system: T47D
SK-MEL-28 = test system: SK-MEL-28
OVCAR-4 = test system: OVCAR-4
OVCAR-3 = test system: OVCAR-3
UACC-62 = test system: UACC-62
SW-620 = test system: SW-620
MOLT-4 = test system: MOLT-4
BT-549 = test system: BT-549
K562 = test system: K562
HCC 2998 = test system: HCC 2998

Structure (SMILES)	GI50 (NCI-H23)	GI50 (M14)	GI50 (SK-MEL-2)	GI50 (HOP-92)	GI50 (EKVX)	GI50 (SF-295)	GI50 (SF-539)	GI50 (KM12)	GI50 (786-0)	GI50 (U-251)	GI50 (T47D)	GI50 (SK-MEL-28)	GI50 (OVCAR-4)	GI50 (OVCAR-3)	GI50 (UACC-62)	GI50 (SW-620)	GI50 (MOLT-4)	GI50 (BT-549)	GI50 (K562)	GI50 (HCC 2998)
Oc1nc(S)nc(SCc2c(Cl)c(Cl)c(Cl)c(Cl)c2Cl)n1	55.7 µM (inactive)	60.8 µM (inactive)	52.5 µM (inactive)	77.8 µM (inactive)	40.9 µM (inactive)	> 100 µM (inactive)	46.2 µM (inactive)	89.9 µM (inactive)	42.7 µM (inactive)	> 100 µM (inactive)	27.9 µM (inactive)	31.1 µM (inactive)	21.9 µM (inactive)	15.3 µM (inactive)	> 92.7 µM (inactive)	32.4 µM (inactive)	0.809 µM (active)	> 80.2 µM (inactive)	15.3 µM (inactive)	–
COc1cc(C2SCC(=O)N2c2ccc(-n3c(-c4ccccc4)nc4ccccc4c3=O)cc2)cc(OC)c1OC (stereo not drawn)	> 100 µM (inactive)	–	> 100 µM (inactive)	28.6 µM (inactive)	> 100 µM (inactive)	> 100 µM (inactive)	> 100 µM (inactive)	97.3 µM (inactive)	> 100 µM (inactive)	> 100 µM (inactive)	27.9 µM (inactive)	> 100 µM (inactive)	> 100 µM (inactive)	> 100 µM (inactive)	41.2 µM (inactive)	> 100 µM (inactive)	20.1 µM (inactive)	> 100 µM (inactive)	> 100 µM (inactive)	> 100 µM (inactive)
CCc1n[nH]c(=O)n1/N=C/c1ccc(C)cc1	> 100 µM (inactive)	–	> 100 µM (inactive)	> 100 µM (inactive)	3.41 µM (inactive)	> 100 µM (inactive)	> 100 µM (inactive)	69.3 µM (inactive)	> 100 µM (inactive)	> 100 µM (inactive)	> 100 µM (inactive)	> 100 µM (inactive)	58.5 µM (inactive)	69.5 µM (inactive)	60.7 µM (inactive)	> 100 µM (inactive)	5.2 µM (inactive)	> 100 µM (inactive)	> 100 µM (inactive)	> 100 µM (inactive)
O=C(c1cccc2cc(O)ccc12)c1cn(CCN2CCOCC2)c2ccccc12	33.3 µM (inactive)	20 µM (inactive)	11 µM (inactive)	31.4 µM (inactive)	28.1 µM (inactive)	–	> 100 µM (inactive)	–	21.1 µM (inactive)	–	38.3 µM (inactive)	42.6 µM (inactive)	–	–	17.7 µM (inactive)	22.4 µM (inactive)	34.7 µM (inactive)	23.4 µM (inactive)	60.1 µM (inactive)	–
COc1cc(/C=N\N(C)C)cc(/C=N/N(C)C)c1O	> 100 µM (inactive)	18.3 µM (inactive)	7.89 µM (inactive)	6.14 µM (inactive)	–	2.9 µM (inactive)	6.03 µM (inactive)	> 100 µM (inactive)	24.4 µM (inactive)	21.1 µM (inactive)	1.98 µM (inactive)	19.3 µM (inactive)	49.2 µM (inactive)	17.3 µM (inactive)	28.1 µM (inactive)	46.7 µM (inactive)	< 0.01 µM (active)	13.4 µM (inactive)	–	–
CCOC(=O)c1ccc(/N=C/C=C(\Nc2ccc(C(=O)OCC)cc2)c2ccc3ccccc3c2)cc1	21 µM (inactive)	23.7 µM (inactive)	23.5 µM (inactive)	78 µM (inactive)	–	28.2 µM (inactive)	20.2 µM (inactive)	17.2 µM (inactive)	23.3 µM (inactive)	32.8 µM (inactive)	13.9 µM (inactive)	23.5 µM (inactive)	26.4 µM (inactive)	23.1 µM (inactive)	14 µM (inactive)	45.2 µM (inactive)	3.97 µM (inactive)	17 µM (inactive)	13.3 µM (inactive)	–
CC1(C)C2CC(O)C1(C)CC2=O (stereo not drawn)	> 100 µM (inactive)	> 100 µM (inactive)	–	> 100 µM (inactive)	–	> 100 µM (inactive)	> 100 µM (inactive)	> 100 µM (inactive)	> 100 µM (inactive)	> 100 µM (inactive)	> 100 µM (inactive)	3.21 µM (inactive)	> 100 µM (inactive)	> 100 µM (inactive)	> 100 µM (inactive)	> 100 µM (inactive)	> 100 µM (inactive)	> 100 µM (inactive)	> 100 µM (inactive)	> 100 µM (inactive)
C/C(=N\Nc1ccc([N+](=O)[O-])cc1[N+](=O)[O-])c1sc(-n2nc(-c3ccccc3)cc2-c2ccccc2)nc1C	32.9 µM (inactive)	56.4 µM (inactive)	–	23.9 µM (inactive)	26.5 µM (inactive)	35.7 µM (inactive)	46.8 µM (inactive)	11.3 µM (inactive)	36.7 µM (inactive)	42.7 µM (inactive)	13.8 µM (inactive)	90.2 µM (inactive)	43.9 µM (inactive)	39.4 µM (inactive)	53.6 µM (inactive)	26.3 µM (inactive)	16.9 µM (inactive)	36.9 µM (inactive)	–	32.9 µM (inactive)
O=[N+]([O-])c1ccc2c3ccccc3[s+]([O-])c2c1 (stereo not drawn)	> 100 µM (inactive)	> 100 µM (inactive)	> 100 µM (inactive)	> 100 µM (inactive)	35.2 µM (inactive)	> 100 µM (inactive)	> 100 µM (inactive)	> 100 µM (inactive)	> 100 µM (inactive)	> 100 µM (inactive)	> 100 µM (inactive)	> 100 µM (inactive)	> 100 µM (inactive)	33 µM (inactive)	> 100 µM (inactive)	72.4 µM (inactive)	> 100 µM (inactive)	> 100 µM (inactive)	> 100 µM (inactive)	–
COc1ccc(CNc2nc(NCc3ccc(OC)cc3)nc(N3CCOCC3)n2)cc1	3.91 µM (inactive)	6.35 µM (inactive)	> 100 µM (inactive)	22.8 µM (inactive)	37.4 µM (inactive)	2.77 µM (inactive)	4.27 µM (inactive)	2.34 µM (inactive)	5.25 µM (inactive)	4.43 µM (inactive)	9.84 µM (inactive)	40.2 µM (inactive)	15.5 µM (inactive)	2.44 µM (inactive)	3.58 µM (inactive)	4.25 µM (inactive)	2.88 µM (inactive)	19.1 µM (inactive)	4.55 µM (inactive)	–
O=c1c2c3c(sc2nc2n1N=CN(c1ccccc1)C2)CCCC3	> 100 µM (inactive)	> 100 µM (inactive)	> 100 µM (inactive)	> 100 µM (inactive)	> 100 µM (inactive)	> 100 µM (inactive)	–	> 100 µM (inactive)	> 100 µM (inactive)	> 100 µM (inactive)	> 100 µM (inactive)	> 100 µM (inactive)	> 100 µM (inactive)	> 100 µM (inactive)	> 100 µM (inactive)	> 100 µM (inactive)	> 100 µM (inactive)	> 100 µM (inactive)	> 100 µM (inactive)	> 100 µM (inactive)
CCOC(=O)C1C(=O)CC(C)(O)C(C(=O)OCC)C1c1ccc(O)c(OC)c1 (stereo not drawn)	> 100 µM (inactive)	–	> 100 µM (inactive)	> 100 µM (inactive)	> 100 µM (inactive)	> 100 µM (inactive)	–	> 100 µM (inactive)	> 100 µM (inactive)	> 100 µM (inactive)	> 100 µM (inactive)	> 100 µM (inactive)	> 100 µM (inactive)	> 100 µM (inactive)	> 100 µM (inactive)	> 100 µM (inactive)	> 100 µM (inactive)	> 100 µM (inactive)	> 100 µM (inactive)	> 100 µM (inactive)
CN(C)c1ccc(/C=N\NC(=O)CSCC(=O)N/N=C/c2ccc(N(C)C)cc2)cc1	49.9 µM (inactive)	33.9 µM (inactive)	29.9 µM (inactive)	> 100 µM (inactive)	44.5 µM (inactive)	31.1 µM (inactive)	37.3 µM (inactive)	41.2 µM (inactive)	55.1 µM (inactive)	25.9 µM (inactive)	23.8 µM (inactive)	63.8 µM (inactive)	43.9 µM (inactive)	68.9 µM (inactive)	35.1 µM (inactive)	> 100 µM (inactive)	36.6 µM (inactive)	23.8 µM (inactive)	52.6 µM (inactive)	–
N#CC(C#N)/N=N/c1ccc(-c2nc3ccccc3s2)cc1	2.93 µM (inactive)	8.73 µM (inactive)	4.73 µM (inactive)	1.48 µM (inactive)	7.03 µM (inactive)	–	9.33 µM (inactive)	–	8.36 µM (inactive)	–	2.22 µM (inactive)	10.4 µM (inactive)	6.49 µM (inactive)	–	–	4.79 µM (inactive)	1.33 µM (inactive)	5.19 µM (inactive)	–	–
O=[N+]([O-])c1ccc([I+]c2ccccc2)cc1	2.33 µM (inactive)	4.29 µM (inactive)	–	9.79 µM (inactive)	15.7 µM (inactive)	1.27 µM (inactive)	7.11 µM (inactive)	5.04 µM (inactive)	4.26 µM (inactive)	5.46 µM (inactive)	6.52 µM (inactive)	3.6 µM (inactive)	4.33 µM (inactive)	3.13 µM (inactive)	2.96 µM (inactive)	4.49 µM (inactive)	2.25 µM (inactive)	2.8 µM (inactive)	4.19 µM (inactive)	7.28 µM (inactive)

Reference: ChEMBL document CHEMBL1201862, “PubChem BioAssay data set” (2004)
